Assay results reported in patent US20150252370A1, “USE OF ATX INHIBITORS FOR TREATMENT OR PREVENTION OF INFLUENZA VIRUS A INFECTIONS” (Academia Sinica, priority 2014, published 2015).
Entries after “also recorded” stand apart in the source; their conditions may differ.

What was measured:
metastatic breast cancer = settings: mouse models of metastatic breast cancer; cited from earlier work
human AXL = molecular target: T1, human AXL (Homo sapiens, UniProt P30530); format: cell-based
T1 construct: Human AXL (NM_021913.4) were PCR amplified using the primers human AXL forward; expressed in transfected cells
T1 sequence (P30530 26-894): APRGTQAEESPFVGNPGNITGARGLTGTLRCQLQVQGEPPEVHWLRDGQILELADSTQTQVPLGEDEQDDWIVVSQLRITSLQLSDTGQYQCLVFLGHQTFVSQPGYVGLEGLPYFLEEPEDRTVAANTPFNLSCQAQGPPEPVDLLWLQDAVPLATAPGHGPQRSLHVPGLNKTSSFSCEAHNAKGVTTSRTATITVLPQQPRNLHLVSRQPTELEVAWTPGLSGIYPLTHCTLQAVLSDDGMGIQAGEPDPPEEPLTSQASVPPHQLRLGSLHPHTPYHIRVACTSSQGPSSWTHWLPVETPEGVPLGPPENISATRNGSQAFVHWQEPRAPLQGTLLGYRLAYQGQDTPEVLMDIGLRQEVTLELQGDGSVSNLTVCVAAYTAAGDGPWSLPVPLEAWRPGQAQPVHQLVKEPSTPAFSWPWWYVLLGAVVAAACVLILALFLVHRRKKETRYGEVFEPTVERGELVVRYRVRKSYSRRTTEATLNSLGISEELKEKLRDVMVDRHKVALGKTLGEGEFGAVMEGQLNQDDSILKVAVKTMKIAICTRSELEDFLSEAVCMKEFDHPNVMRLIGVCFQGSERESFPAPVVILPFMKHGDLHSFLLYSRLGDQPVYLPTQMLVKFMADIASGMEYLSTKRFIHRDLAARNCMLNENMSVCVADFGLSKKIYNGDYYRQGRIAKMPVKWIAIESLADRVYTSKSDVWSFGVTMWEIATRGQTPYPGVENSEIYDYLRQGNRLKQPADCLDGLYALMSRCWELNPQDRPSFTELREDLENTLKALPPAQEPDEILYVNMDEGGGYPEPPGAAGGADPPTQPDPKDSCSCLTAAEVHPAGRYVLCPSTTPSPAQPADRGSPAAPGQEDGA

[1] = tested on: Influenza A virus (IAV) (A/WSN/33, H1N1); format: cell-based

## Nc1nc(Nc2ccc3c(c2)CCC(N2CCCC2)CC3)nn1-c1cc2c(nn1)-c1ccccc1CCC2 (stereo not shown) [R428, 1-(6,7-dihydro-5H-benzo[6,7]cyclohepta[1,2-c]pyridazin-3-yl)-N3-(7-(pyrrolidin-1-yl)-6,7,8,9-tetrahydro-5H-benzo[7]annulen-2-yl)-1H-1,2,4-triazole-3,5-diamine]
Metastatic breast cancer
  tumor spread and survival: block tumor spread and prolong survival
Human AXL
  AXL autophosphorylation stimulated by Gas6: block autophosphorylation
[1]
  IAV replication (NP and NS1 protein expression): blocked virus infection; also recorded: significantly inhibited influenza A virus infection; also recorded: inhibited IAV replication
  time of addition at which R428 inhibits IAV replication: before or during the first hour, but not later
